Experimental data from patent US11028079B2 (ConverGene LLC, priority 2015, dated 2021).
Each block holds one compound with its values, some of them ahead of it.

Biological target: T1, BRD4 bromodomains (Homo sapiens, UniProt O60885)
T1 construct: fused on or other part: T7 phage capsid protein (phage-display fusion; the phage DNA is read out by qPCR)
Assay: BROMOscan bromodomain competition binding assay (DiscoveRx)
Details: Kd from 11 compound concentrations ranging from 0 to 10 μM, read-out: BROMOscan Relative Activity
Summary of the method: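 Compounds in 0.1% DMSO/0.9% MEG competed with a solid-phase acetylated peptide for T7 phage-fused BRD4 bromodomains, with the retained bromodomain measured by qPCR.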

SMILES: Cc1noc(C)c1-c1ccc2ncnc(N3CCC(C(=O)O)CC3)c2c1 [Example 261, 1-(6-(3,5-dimethylisoxazol-4-yl)quinazolin-4-yl)piperidine-4-carboxylic Acid]
Kd: 500 to 5000 nM

SMILES: Cc1noc(C)c1-c1ccc2nc(C(=O)NC3CCS(=O)(=O)CC3)nc(N3CCOC[C@@H]3c3ccccc3)c2c1 [Example 275, (S)-6-(3,5-dimethylisoxazol-4-yl)-N-(1,1-dioxidotetrahydro-2H-thiopyran-4-yl)-4-(3-phenylmorpholino)quinazoline-2-carboxamide]
Kd: < 500 nM

SMILES: Cc1noc(C)c1-c1ccc2nc(C(=O)N3CCc4c(cnn4C)C3)nc(N3CCOC[C@@H]3c3ccccc3)c2c1 [Example 276, (S)-(6-(3,5-dimethylisoxazol-4-yl)-4-(3-phenylmorpholino)quinazolin-2-yl)(1-methyl-1,4,6,7-tetrahydro-5H-pyrazolo[4,3-c]pyridin-5-yl)methanone]
Kd: 500 to 5000 nM

SMILES: Cc1noc(C)c1-c1ccc2nc(C(=O)NC3CN(C)C3)nc(N3CCOC[C@@H]3c3ccccc3)c2c1 [Example 277, (S)-6-(3,5-dimethylisoxazol-4-yl)-N-(1-methylazetidin-3-yl)-4-(3-phenylmorpholino)quinazoline-2-carboxamide]
Kd: < 500 nM

SMILES: Cc1noc(C)c1-c1ccc2nc(N3CCc4c(cnn4C)C3)nc(NCc3cccc(Cl)c3)c2c1 [Example 278, N-(3-chlorobenzyl)-6-(3,5-dimethylisoxazol-4-yl)-2-(1-methyl-1,4,6,7-tetrahydro-5H-pyrazolo[4,3-c]pyridin-5-yl)quinazolin-4-amine]
Kd: 500 to 5000 nM

SMILES: Cc1noc(C)c1-c1ccc2nc(C(=O)NCc3cncn3C)nc(N3CCOC[C@@H]3c3ccccc3)c2c1 [Example 279, (S)-6-(3,5-dimethylisoxazol-4-yl)-N-((1-methyl-1H-imidazol-5-yl)methyl)-4-(3-phenylmorpholino)quinazoline-2-carboxamide]
Kd: < 500 nM

SMILES: Cc1noc(C)c1-c1ccc2nc(C(=O)NC3CCN(C)CC3)nc(N3CCOC[C@@H]3c3ccccc3)c2c1 [Example 280, (S)-6-(3,5-dimethylisoxazol-4-yl)-N-(1-methylpiperidin-4-yl)-4-(3-phenylmorpholino)quinazoline-2-carboxamide]
Kd: < 500 nM

SMILES: Cc1nn(C)cc1CNC(=O)c1nc(N2CCOC[C@@H]2c2ccccc2)c2cc(-c3c(C)noc3C)ccc2n1 [Example 281, (S)—N-((1,3-dimethyl-1H-pyrazol-4-yl)methyl)-6-(3,5-dimethylisoxazol-4-yl)-4-(3-phenylmorpholino)quinazoline-2-carboxamide]
Kd: < 500 nM

SMILES: Cc1noc(C)c1-c1ccc2nc(N3CCc4[nH]ncc4C3)nc(N3CCOC[C@@H]3c3ccccc3)c2c1 [Example 282, (S)-4-(6-(3,5-dimethylisoxazol-4-yl)-2-(1,4,6,7-tetrahydro-5H-pyrazolo[4,3-c]pyridin-5-yl)quinazolin-4-yl)-3-phenylmorpholine]
Kd: < 500 nM

SMILES: Cc1noc(C)c1-c1ccc2nc(C(=O)NCC3CN(C)C3)nc(N3CCOC[C@@H]3c3ccccc3)c2c1 [Example 283, (S)-6-(3,5-dimethylisoxazol-4-yl)-N-((1-methylazetidin-3-yl)methyl)-4-(3-phenylmorpholino)quinazoline-2-carboxamide]
Kd: < 500 nM

SMILES: Cc1noc(C)c1-c1ccc2nc(C(=O)N3CCc4[nH]ncc4C3)nc(NCc3cncc(Cl)c3)c2c1 [Example 284, (4-(((5-chloropyridin-3-yl)methyl)amino)-6-(3,5-dimethylisoxazol-4-yl)quinazolin-2-yl)(1,4,6,7-tetrahydro-5H-pyrazolo[4,3-c]pyridin-5-yl)methanone]
Kd: 500 to 5000 nM

SMILES: Cc1noc(C)c1-c1ccc2nc(C(=O)N3CCc4[nH]ncc4C3)nc(N3CCOC[C@@H]3c3ccccc3)c2c1 [Example 285, (S)-(6-(3,5-dimethylisoxazol-4-yl)-4-(3-phenylmorpholino)quinazolin-2-yl)(1,4,6,7-tetrahydro-5H-pyrazolo[4,3-c]pyridin-5-yl)methanone]
Kd: 500 to 5000 nM

SMILES: Cc1noc(C)c1-c1ccc2nc(C(=O)N3CCc4[nH]ncc4C3)nc(NC3(c4cccc(Cl)c4)CC3)c2c1 [Example 286, (4-((1-(3-chlorophenyl)cyclopropyl)amino)-6-(3,5-dimethylisoxazol-4-yl)quinazolin-2-yl)(1,4,6,7-tetrahydro-5H-pyrazolo[4,3-c]pyridin-5-yl)methanone]
Kd: < 500 nM

SMILES: Cc1noc(C)c1-c1ccc2nc(C(=O)N3CCc4[nH]ncc4C3)nc(NCc3cccc(Cl)c3)c2c1 [Example 287, (4-((3-chlorobenzyl)amino)-6-(3,5-dimethylisoxazol-4-yl)quinazolin-2-yl)(1,4,6,7-tetrahydro-5H-pyrazolo[4,3-c]pyridin-5-yl)methanone]
Kd: < 500 nM

SMILES: Cc1noc(C)c1-c1ccc2nc(C(=O)N3CCc4[nH]ncc4C3)cc(NCc3cccc(Cl)c3)c2c1 [Example 288, (4-((3-chlorobenzyl)amino)-6-(3,5-dimethylisoxazol-4-yl)quinolin-2-yl)(1,4,6,7-tetrahydro-5H-pyrazolo[4,3-c]pyridin-5-yl)methanone]
Kd: 500 to 5000 nM

SMILES: Cc1noc(C)c1-c1ccc2nc(N3CCc4c(cnn4C)C3)nc(N3CCOC[C@@H]3c3ccccc3)c2c1 [Example 289, (S)-4-(6-(3,5-dimethylisoxazol-4-yl)-2-(1-methyl-1,4,6,7-tetrahydro-5H-pyrazolo[4,3-c]pyridin-5-yl)quinazolin-4-yl)-3-phenylmorpholine]
Kd: < 500 nM

Next, values leading:

Kd: < 500 nM
SMILES: Cc1n[nH]c(C)c1CNC(=O)c1nc(NCc2cccc(Cl)c2)c2cc(-c3c(C)noc3C)ccc2n1 [Example 257, 4-((3-chlorobenzyl)amino)-N-((3,5-dimethyl-1H-pyrazol-4-yl)methyl)-6-(3,5-dimethylisoxazol-4-yl)quinazoline-2-carboxamide]

Kd: < 500 nM
SMILES: Cc1ncsc1CNC(=O)c1nc(NCc2cccc(Cl)c2)c2cc(-c3c(C)noc3C)ccc2n1 [Example 258, 4-((3-chlorobenzyl)amino)-6-(3,5-dimethylisoxazol-4-yl)-N-((4-methylthiazol-5-yl)methyl)quinazoline-2-carboxamide]

Kd: < 500 nM
SMILES: Cc1noc(C)c1CNC(=O)c1nc(NCc2cccc(Cl)c2)c2cc(-c3c(C)noc3C)ccc2n1 [Example 259, 4-((3-chlorobenzyl)amino)-6-(3,5-dimethylisoxazol-4-yl)-N-((3,5-dimethylisoxazol-4-yl)methyl)quinazoline-2-carboxamide]

Kd: < 500 nM
SMILES: Cc1nc(C)c(CNC(=O)c2nc(NCc3cccc(Cl)c3)c3cc(-c4c(C)noc4C)ccc3n2)s1 [Example 260, 4-((3-chlorobenzyl)amino)-6-(3,5-dimethylisoxazol-4-yl)-N-((2,4-dimethylthiazol-5-yl)methyl)quinazoline-2-carboxamide]

Kd: < 500 nM
SMILES: Cc1noc(C)c1-c1ccc2nc(-c3cnn(CC(C)(C)O)c3)nc(N3CCOC[C@@H]3c3ccccc3)c2c1 [Example 262, (S)-1-(4-(6-(3,5-dimethylisoxazol-4-yl)-4-(3-phenylmorpholino)quinazolin-2-yl)-1H-pyrazol-1-yl)-2-methylpropan-2-ol]

Kd: < 500 nM
SMILES: Cc1noc(C)c1-c1ccc2nc(-c3cnn(CC(C)(C)O)c3)nc(N3CCOC[C@H]3c3ccccc3)c2c1 [Example 263, (R)-1-(4-(6-(3,5-dimethylisoxazol-4-yl)-4-(3-phenylmorpholino)quinazolin-2-yl)-1H-pyrazol-1-yl)-2-methylpropan-2-ol]

Kd: < 500 nM
SMILES: Cc1noc(C)c1-c1ccc2ncnc(N3CCOCC3c3ccccc3)c2c1 (stereo not shown) [Example 264, 4-(6-(3,5-dimethylisoxazol-4-yl)quinazolin-4-yl)-3-phenylmorpholine]

Kd: < 500 nM
SMILES: CNC(=O)C1CCN(c2nc(N3CCN(CCN(C)C)CC3)nc3ccc(-c4c(C)noc4C)cc23)CC1 [Example 267, 1-(2-(4-(2-(dimethylamino)ethyl)piperazin-1-yl)-6-(3,5-dimethylisoxazol-4-yl)quinazolin-4-yl)-N-methylpiperidine-4-carboxamide]

Kd: < 500 nM
SMILES: Cc1noc(C)c1-c1ccc2nc(N3CCN(S(C)(=O)=O)CC3)nc(N3CCOC[C@H]3c3ccccc3)c2c1 [Example 268, (R)-4-(6-(3,5-dimethylisoxazol-4-yl)-2-(4-(methylsulfonyl)piperazin-1-yl)quinazolin-4-yl)-3-phenylmorpholine]

Kd: < 500 nM
SMILES: Cc1noc(C)c1-c1ccc2nc(N3CCN(S(C)(=O)=O)CC3)nc(N3CCOC[C@@H]3c3ccccc3)c2c1 [Example 269, (S)-4-(6-(3,5-dimethylisoxazol-4-yl)-2-(4-(methylsulfonyl)piperazin-1-yl)quinazolin-4-yl)-3-phenylmorpholine]

Kd: < 500 nM
SMILES: CNC(=O)C1CCN(c2ncnc3ccc(-c4c(C)noc4C)cc23)CC1 [Example 270, 1-(6-(3,5-dimethylisoxazol-4-yl)quinazolin-4-yl)-N-methylpiperidine-4-carboxamide]

Kd: < 500 nM
SMILES: Cc1noc(C)c1-c1ccc2nc(C(=O)NC3CS(=O)(=O)C3)nc(NCc3cccc(Cl)c3)c2c1 [Example 271, 4-((3-chlorobenzyl)amino)-6-(3,5-dimethylisoxazol-4-yl)-N-(1,1-dioxidothietan-3-yl)quinazoline-2-carboxamide]

Kd: < 500 nM
SMILES: CNC(=O)Cn1cc(-c2nc(N3CCOC[C@@H]3c3ccccc3)c3cc(-c4c(C)noc4C)ccc3n2)cn1 [Example 272, (S)-2-(4-(6-(3,5-dimethylisoxazol-4-yl)-4-(3-phenylmorpholino)quinazolin-2-yl)-1H-pyrazol-1-yl)-N-methylacetamide]

Kd: < 500 nM
SMILES: Cc1noc(C)c1-c1ccc2nc(C(=O)N[C@H]3CC[C@H](O)CC3)nc(N3CCOC[C@@H]3c3ccccc3)c2c1 [Example 273, 6-(3,5-dimethylisoxazol-4-yl)-N-((trans)-4-hydroxycyclohexyl)-4-((S)-3-phenylmorpholino)quinazoline-2-carboxamide]

Kd: < 500 nM
SMILES: Cc1noc(C)c1-c1ccc2nc(C(=O)N[C@H]3CC[C@H](O)CC3)cc(NCc3cccc(Cl)c3)c2c1 [Example 274, 4-((3-chlorobenzyl)amino)-6-(3,5-dimethylisoxazol-4-yl)-N-((trans)-4-hydroxycyclohexyl)quinoline-2-carboxamide]
